Laboratory results taken from the supplement of paper PMC6045584.
± gives the standard deviation of the averaged measurements.

How the values were obtained:
[1] = compound: CC(=O)O[C@H]1C(=O)[C@@]2(C)[C@H]([C@H](OC(=O)c3ccccc3)[C@]3(O)C[C@H](OC(=O)[C@H](O)[C@@H](NC(=O)c4ccccc4)c4ccccc4)C(C)=C1C3(C)C)[C@]1(OC(C)=O)CO[C@@H]1C[C@@H]2O [PACLITAXEL]; assay: surviving fraction relative to DMSO-only wells; higher = less growth inhibition; conditions: exposure time: 5 days
Method in brief: (§1)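 Log-phase tumour cells were seeded at 250–500 per well in 384-well plates and, from 24 hours after seeding, exposed continuously for five days to inhibitors at 0.5, 1, 5, 10, 50, 100, 500 and 1000 nM. Surviving fraction is CellTiter-Glo luminescence normalised to the median of DMSO-only wells. Luminescence was measured after 10 minutes at room temperature, and only lines screened three times with replicate Pearson r >0.7 and median Z' >0.3 were kept.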

[2] = compound: O=C(O)C1(C(=O)O)CCC1.[NH2-].[NH2-].[Pt+2] [CARBOPLATIN]; assay: as above; conditions: exposure time: 5 days
Method in brief: as §1

Test System	surviving fraction ([1]; 0.5 nM)	surviving fraction ([1]; 1 nM)	surviving fraction ([1]; 5 nM)	surviving fraction ([1]; 10 nM)	surviving fraction ([1]; 50 nM)	surviving fraction ([1]; 100 nM)	surviving fraction ([1]; 500 nM)	surviving fraction ([1]; 1000 nM)	surviving fraction ([2]; 0.5 nM)	surviving fraction ([2]; 1 nM)	surviving fraction ([2]; 5 nM)	surviving fraction ([2]; 10 nM)	surviving fraction ([2]; 50 nM)	surviving fraction ([2]; 100 nM)	surviving fraction ([2]; 500 nM)	surviving fraction ([2]; 1000 nM)
HCC1395 BREAST	0.749 ± 0.14	0.821 ± 0.065	0.782 ± 0.033	0.547 ± 0.11	0.419 ± 0.16	0.362 ± 0.054	0.396 ± 0.088	0.405 ± 0.051	1.16 ± 0.058	1.1 ± 0.044	1.16 ± 0.071	1.198 ± 0.0097	1.15 ± 0.16	1.18 ± 0.062	1.17 ± 0.13	1.04 ± 0.1
HCC1806 BREAST	0.89 ± 0.17	0.1833 ± 0.0015	0.0437 ± 0.0038	0.0357 ± 0.0032	0.0307 ± 0.0057	0.0207 ± 0.0029	0.0253 ± 0.0031	0.021 ± 0.0017	1.05 ± 0.14	0.777 ± 0.044	1.1 ± 0.15	1.2 ± 0.012	1.17 ± 0.081	1.14 ± 0.14	1.04 ± 0.086	1.16 ± 0.14
HCC1954 BREAST	0.6985 ± 0.00071	0.569 ± 0.0021	0.199 ± 0.0014	0.094 ± 0.0057	0.0897 ± 0.0025	0.071 ± 0.0028	0.0592 ± 0.012	0.0653 ± 0.015	1.36 ± 0.11	1.02 ± 0.072	1.4 ± 0.31	1.52 ± 0.31	1.05 ± 0.15	0.954 ± 0.013	1.07 ± 0.062	0.836 ± 0.12
HCT15 LARGE INTESTINE	1.01 ± 0.012	1.07 ± 0.024	0.95 ± 0.077	0.861 ± 0.074	0.255 ± 0.064	0.0833 ± 0.0076	0.04 ± 0.0036	0.0453 ± 0.0032	1.1 ± 0.067	1.04 ± 0.056	1.04 ± 0.065	1.03 ± 0.096	1.06 ± 0.072	1.09 ± 0.045	1.06 ± 0.036	1.08 ± 0.04
HELA CERVIX	1.04 ± 0.037	1.05 ± 0.1	0.0503 ± 0.001	0.0423 ± 0.0041	0.0277 ± 0.0016	0.0237 ± 0.0039	0.017 ± 0.0015	0.0247 ± 0.00076	1.07 ± 0.02	1.03 ± 0.042	1.03 ± 0.034	1.01 ± 0.02	1.05 ± 0.053	1.14 ± 0.088	1.15 ± 0.055	1.09 ± 0.045
HMLE3 BREAST	0.89 ± 0.065	0.816 ± 0.1	0.247 ± 0.019	0.0813 ± 0.0093	0.05 ± 0.007	0.0377 ± 0.0042	0.034 ± 0.0027	0.0287 ± 0.0011	1.07 ± 0.033	1.1 ± 0.053	1.11 ± 0.06	1.18 ± 0.092	1.06 ± 0.042	1.05 ± 0.11	1.02 ± 0.057	1.08 ± 0.13
HMT3552 BREAST	0.568	0.133	0.09	0.091	0.106	0.099	0.1	0.094	1.03 ± 0.063	0.996 ± 0.11	1.02 ± 0.032	1.03 ± 0.065	1.205 ± 0.0096	1.17 ± 0.059	1.25 ± 0.031	1.14 ± 0.088
HOSMNG BONE	1.04 ± 0.049	1.05 ± 0.11	0.921 ± 0.088	0.924 ± 0.043	0.29 ± 0.031	0.12 ± 0.0079	0.0573 ± 0.0021	0.063 ± 0.0044	1.06 ± 0.025	1.02 ± 0.059	1.03 ± 0.075	1.05 ± 0.036	1.22 ± 0.069	1.23 ± 0.015	1.091 ± 0.0096	1.19 ± 0.013
HS57T BREAST	0.773 ± 0.045	0.478 ± 0.058	0.0727 ± 0.0025	0.0563 ± 0.0021	0.0457 ± 0.0042	0.0463 ± 0.0065	0.0353 ± 0.0021	0.0403 ± 0.007	1.03 ± 0.015	1.08 ± 0.11	1.09 ± 0.028	1.12 ± 0.029	1.11 ± 0.084	1.08 ± 0.033	1.07 ± 0.092	1.05 ± 0.054
HS578T BREAST	0.428 ± 0.043	0.246 ± 0.019	0.127 ± 0.0038	0.108 ± 0.011	0.126 ± 0.013	0.109 ± 0.0027	0.11 ± 0.01	0.101 ± 0.01	1.06 ± 0.25	1.04 ± 0.091	1.07 ± 0.14	1.12 ± 0.16	0.964 ± 0.055	1.03 ± 0.13	0.992 ± 0.17	1 ± 0.076
HSSYII SYNOVIAL	0.836 ± 0.0087	0.558 ± 0.021	0.0827 ± 0.011	0.0622 ± 0.0043	0.0613 ± 0.0025	0.0585 ± 0.0041	0.049 ± 0.0033	0.0538 ± 0.0021	0.965 ± 0.035	0.957 ± 0.015	0.975 ± 0.023	0.963 ± 0.089	0.965 ± 0.05	0.97 ± 0.016	0.959 ± 0.037	0.958 ± 0.089
HU09 BONE	0.811 ± 0.11	0.45 ± 0.011	0.0977 ± 0.0081	0.0603 ± 0.0055	0.0367 ± 0.0029	0.0263 ± 0.0042	0.0247 ± 0.0015	0.0247 ± 0.0042	0.977 ± 0.027	0.955 ± 0.056	1.17 ± 0.069	1.09 ± 0.021	1.09 ± 0.046	1.11 ± 0.13	1.09 ± 0.076	1.07 ± 0.12
JIMT1 BREAST	0.618 ± 0.028	0.293 ± 0.024	0.16 ± 0.0026	0.119 ± 0.011	0.0905 ± 0.0083	0.0907 ± 0.0037	0.0727 ± 0.008	0.0808 ± 0.0025	0.97 ± 0.037	0.949 ± 0.027	0.999 ± 0.014	0.969 ± 0.015	1.09 ± 0.036	0.949 ± 0.06	1.03 ± 0.031	0.95 ± 0.07
JURKAT HAEMATOPOIETIC AND LYMPHOID TISSUE	1.01 ± 0.024	0.675 ± 0.042	0.0347 ± 0.0021	0.03 ± 0.001	0.0297 ± 0.0011	0.0237 ± 0.00058	0.02 ± 0.001	0.0213 ± 0.00058	1 ± 0.021	1.05 ± 0.043	1 ± 0.025	1.03 ± 0.012	1 ± 0.039	1.07 ± 0.031	1.01 ± 0.042	1.04 ± 0.019
KPD BONE	0.909 ± 0.093	0.889 ± 0.062	0.387 ± 0.029	0.365 ± 0.044	0.338 ± 0.015	0.315 ± 0.025	0.327 ± 0.011	0.313 ± 0.026	1.02 ± 0.032	1.07 ± 0.065	1.12 ± 0.033	1.05 ± 0.051	1.09 ± 0.02	1.1 ± 0.05	1.04 ± 0.084	1.03 ± 0.016
LM7 BONE	0.951 ± 0.061	0.825 ± 0.034	0.123 ± 0.019	0.092 ± 0.003	0.0847 ± 0.0068	0.075 ± 0.0044	0.0723 ± 0.0015	0.0703 ± 0.004	1.06 ± 0.017	1.07 ± 0.051	1.09 ± 0.076	1.05 ± 0.028	1.11 ± 0.064	1.08 ± 0.094	1 ± 0.028	1.02 ± 0.018
LNCAP PROSTATE	0.531 ± 0.04	0.358 ± 0.086	0.054 ± 0.015	0.0533 ± 0.004	0.0417 ± 0.0015	0.0347 ± 0.0038	0.0387 ± 0.0021	0.0477 ± 0.0055	1.02 ± 0.043	0.919 ± 0.079	0.981 ± 0.023	1.03 ± 0.086	1.09 ± 0.031	1.04 ± 0.046	1 ± 0.18	0.977 ± 0.077
MCF7 BREAST	0.863 ± 0.077	0.714 ± 0.016	0.432 ± 0.02	0.383 ± 0.0065	0.372 ± 0.01	0.356 ± 0.0077	0.333 ± 0.013	0.326 ± 0.012	0.942 ± 0.053	0.867 ± 0.048	0.995 ± 0.049	0.898 ± 0.042	0.968 ± 0.05	0.949 ± 0.068	0.984 ± 0.092	0.892 ± 0.018
MDAMB134 BREAST	0.936 ± 0.055	0.994 ± 0.033	0.904 ± 0.18	0.67 ± 0.13	0.587 ± 0.11	0.4935 ± 0.00071	0.491 ± 0.072	0.598 ± 0.077	0.906 ± 0.03	0.837 ± 0.13	0.856 ± 0.18	0.837 ± 0.033	1.01 ± 0.11	0.969 ± 0.24	1.05 ± 0.033	0.8405 ± 0.0021
MDAMB361 BREAST	0.974 ± 0.073	0.952 ± 0.028	0.887 ± 0.04	0.707 ± 0.021	0.585 ± 0.041	0.593 ± 0.056	0.516 ± 0.046	0.546 ± 0.027	0.791 ± 0.041	0.821 ± 0.11	0.808 ± 0.043	0.762 ± 0.029	0.873 ± 0.062	0.754 ± 0.1	0.798 ± 0.046	0.785 ± 0.028
